The values below come from article PMC9578396, “Intrinsic Antibacterial Activity of Xeruborbactam In Vitro: Assessing Spectrum and Mode of Action” (Antimicrobial Agents and Chemotherapy, 2022).

Like-named read-outs stand apart in the source and are kept apart here.

Assay [1] addresses PBP1a (Acinetobacter baumannii, UniProt A0ABX6CK30). Put plainly: Gel-based Bocillin FL competition PBP binding assay. The method, then: (§1) Ten milliliters of overnight bacterial culture was inoculated in 1 L of LB medium and grown to an OD600 of 0.7 to 0.9. The cell pellet was washed once with 50 mL of solution containing 100 mM Na-phosphate at pH 7.0 and 100 mM NaCl and resuspended in 10 mL of the same buffer with one tablet of EDTA-free mini-protease inhibitor and 10 mg of lysozyme. Cell suspensions were incubated for 45 min at 37°C, and then 200 μL of DNase I was added along with MgSO4 (to a final concentration of 10 mM), followed by three cycles of freeze-thawing (10 min and 20 min, respectively). Four cycles of sonication at maximum power were performed next, each cycle lasting for 30 s with 1 min on ice between cycles. The cell suspension was centrifuged at 12,000 × g for 10 min at 4°C. The supernatant was collected and centrifuged at 100,000 × g for 45 min at 4°C. The pellet was washed three times with 10 mL of 100 mM Na-phosphate, pH 7.0, by resuspension and subsequent centrifugation at 100,000 × g for 10 min at 4°C. The pellet was finally resuspended in 1.5 mL of 100 mM Na-phosphate, pH 7.0, and passed several times through a Dounce homogenizer (tight pestle). Membrane preparations were aliquoted and kept at −80°C.
(§2) Five microliters of total bacterial membrane preparation was mixed with 5 μL of a test compound at a desired concentration in 100 mM Na-phosphate buffer, pH 7.0. Incubation of bacterial membrane preparations with control beta-lactams was performed for 10 min at 30°C; xeruborbactam was incubated with membrane preparations for 1 h at 30°C. Five microliters of 150 μM Bocillin FL fluorescent probe (Thermo Fisher Scientific) was added, and the reaction mixture was incubated for an additional 10 min at 30°C in the case of beta-lactams or for 20 min on ice (0°C) in the case of xeruborbactam. We believe that the 0°C temperature is required to prevent displacement of xeruborbactam from its complex by the Bocillin probe. At the end of the incubation step, 15 μL of 2× SDS sample loading buffer was added, and the reaction mixture was incubated for 5 min at 95°C. Twenty-five microliters of the reaction mixture was then loaded on an 8% SDS Tris-glycine gel (Thermo Fisher Scientific). At the end of the run, the gel was briefly rinsed with water and fixed in 10% acetic acid, 40% methanol for 20 min. After an additional wash in water for 30 min, the gel was scanned on a Typhoon Trio+ Imager using a blue laser filter (excitation, 488 nm, and emission, 520 nm). Densitometry of the gel images was performed using ImageQuant software (Molecular Dynamics). IC50 values were calculated with Prism software (GraphPad).

Assay [2] has as its target T1, PBP1a (Escherichia coli, UniProt P02918).
T1 construct: endogenous in cells; host or cells: Escherichia coli ECM5497 (MG1655), total membrane preparation
The assay is described as above. As for the experimental part: as §1, §2

Assay [3] deals with PBP1a (Klebsiella pneumoniae, UniProt A0A0H3GZF1). The description is as above. The method, then:
as §1, §2

Assay [4] has as its target T2, PBP1b (Escherichia coli, UniProt P02919).
T2 construct: endogenous in cells; host or cells: Escherichia coli ECM5497 (MG1655), total membrane preparation
The description is as above. As for the experimental part: as §1, §2

In assay [5] the target is PBP2 (Klebsiella pneumoniae, UniProt A6T696). The assay is described as above. As for the experimental part: as §1, §2
The target in assay [6] is PBP3 (Acinetobacter baumannii, UniProt A0ABX6CK25). The description is as above. The method, then:
as §1, §2

Assay [7] has as its target PBP3 (Klebsiella pneumoniae, UniProt A0A0H3GN85). The assay is described as above. The method, then: as §1, §2
Assay [8] relates to A. baumannii strain ATCC 17978. Description: Fluorescence microscopy, cellular morphology. It counts as cell-based, Acinetobacter baumannii. The conditions noted are these: xeruborbactam, meropenem 1× and 2× MIC; aztreonam 2× MIC; amdinocillin 2 μg/mL. As for the experimental part: Single colonies of K. pneumoniae strain KPM1026a, A. baumannii strain ATCC 17978, and P. aeruginosa strain PAM1154 were picked from LB agar plates, inoculated in cation-adjusted Mueller-Hinton broth (CA-MHB), and incubated overnight at 30°C with rolling. Overnight cultures were diluted into fresh CA-MHB and incubated at 30°C, with rolling, until they reached an OD600 of ≈0.12 to 0.15 (equivalent to ~2 × 10^8 CFU/mL). Samples were then treated with compounds and incubated at 30°C, with rolling. After 1 or 2 h of treatment, cells were collected and stained with a dye mix containing FM4-64 (1 μg/mL), DAPI (4′,6-diamidino-2-phenylindole) (2 μg/mL), and SYTOX green (0.5 μM) (Molecular Probes, Invitrogen, or Thermo Fisher Scientific). Cells were transferred onto an agarose pad containing 1.2% agarose and 20% LB medium for microscopy. Microscopy was performed as previously described ([34]).

Sequence of PBP2 (A6T696 entry or part of it): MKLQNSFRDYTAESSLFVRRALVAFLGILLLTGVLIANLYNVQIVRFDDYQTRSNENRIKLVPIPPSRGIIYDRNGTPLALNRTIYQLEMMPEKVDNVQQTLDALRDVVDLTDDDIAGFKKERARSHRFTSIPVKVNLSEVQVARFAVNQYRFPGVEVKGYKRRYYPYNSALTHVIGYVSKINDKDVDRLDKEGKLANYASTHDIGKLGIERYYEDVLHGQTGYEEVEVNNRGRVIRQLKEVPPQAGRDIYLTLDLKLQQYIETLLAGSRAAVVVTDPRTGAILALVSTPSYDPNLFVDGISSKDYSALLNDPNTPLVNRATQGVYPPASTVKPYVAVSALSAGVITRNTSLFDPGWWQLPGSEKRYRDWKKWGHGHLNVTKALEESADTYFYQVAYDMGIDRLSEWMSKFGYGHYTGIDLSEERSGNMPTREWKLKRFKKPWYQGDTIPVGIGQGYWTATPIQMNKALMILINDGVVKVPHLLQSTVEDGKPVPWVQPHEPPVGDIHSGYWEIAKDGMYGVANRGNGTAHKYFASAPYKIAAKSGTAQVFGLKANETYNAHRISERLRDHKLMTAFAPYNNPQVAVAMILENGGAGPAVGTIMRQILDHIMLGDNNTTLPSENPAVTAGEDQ
T1 sequence (P02918 whole entry): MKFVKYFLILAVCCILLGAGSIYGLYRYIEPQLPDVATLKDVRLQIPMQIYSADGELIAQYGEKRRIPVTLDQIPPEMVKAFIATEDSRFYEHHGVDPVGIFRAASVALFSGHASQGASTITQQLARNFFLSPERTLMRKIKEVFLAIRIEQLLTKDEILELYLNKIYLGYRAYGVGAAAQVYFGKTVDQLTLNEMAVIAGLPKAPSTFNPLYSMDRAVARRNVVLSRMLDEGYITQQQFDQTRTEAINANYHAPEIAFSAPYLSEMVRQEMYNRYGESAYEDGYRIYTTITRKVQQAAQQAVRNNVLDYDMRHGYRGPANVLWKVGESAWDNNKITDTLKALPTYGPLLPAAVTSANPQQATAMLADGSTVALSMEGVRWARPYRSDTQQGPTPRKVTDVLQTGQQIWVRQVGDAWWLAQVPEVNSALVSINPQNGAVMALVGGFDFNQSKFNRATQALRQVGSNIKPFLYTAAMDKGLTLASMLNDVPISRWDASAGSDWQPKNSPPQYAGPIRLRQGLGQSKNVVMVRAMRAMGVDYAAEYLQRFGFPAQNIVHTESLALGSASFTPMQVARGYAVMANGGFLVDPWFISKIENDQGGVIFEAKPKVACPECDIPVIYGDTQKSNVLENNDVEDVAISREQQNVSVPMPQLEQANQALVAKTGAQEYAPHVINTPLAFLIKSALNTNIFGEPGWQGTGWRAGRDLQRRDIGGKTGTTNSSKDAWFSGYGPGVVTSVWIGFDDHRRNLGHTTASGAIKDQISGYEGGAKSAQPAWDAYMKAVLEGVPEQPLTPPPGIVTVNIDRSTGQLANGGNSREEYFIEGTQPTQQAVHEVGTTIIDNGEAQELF
T2 sequence (P02919 whole entry): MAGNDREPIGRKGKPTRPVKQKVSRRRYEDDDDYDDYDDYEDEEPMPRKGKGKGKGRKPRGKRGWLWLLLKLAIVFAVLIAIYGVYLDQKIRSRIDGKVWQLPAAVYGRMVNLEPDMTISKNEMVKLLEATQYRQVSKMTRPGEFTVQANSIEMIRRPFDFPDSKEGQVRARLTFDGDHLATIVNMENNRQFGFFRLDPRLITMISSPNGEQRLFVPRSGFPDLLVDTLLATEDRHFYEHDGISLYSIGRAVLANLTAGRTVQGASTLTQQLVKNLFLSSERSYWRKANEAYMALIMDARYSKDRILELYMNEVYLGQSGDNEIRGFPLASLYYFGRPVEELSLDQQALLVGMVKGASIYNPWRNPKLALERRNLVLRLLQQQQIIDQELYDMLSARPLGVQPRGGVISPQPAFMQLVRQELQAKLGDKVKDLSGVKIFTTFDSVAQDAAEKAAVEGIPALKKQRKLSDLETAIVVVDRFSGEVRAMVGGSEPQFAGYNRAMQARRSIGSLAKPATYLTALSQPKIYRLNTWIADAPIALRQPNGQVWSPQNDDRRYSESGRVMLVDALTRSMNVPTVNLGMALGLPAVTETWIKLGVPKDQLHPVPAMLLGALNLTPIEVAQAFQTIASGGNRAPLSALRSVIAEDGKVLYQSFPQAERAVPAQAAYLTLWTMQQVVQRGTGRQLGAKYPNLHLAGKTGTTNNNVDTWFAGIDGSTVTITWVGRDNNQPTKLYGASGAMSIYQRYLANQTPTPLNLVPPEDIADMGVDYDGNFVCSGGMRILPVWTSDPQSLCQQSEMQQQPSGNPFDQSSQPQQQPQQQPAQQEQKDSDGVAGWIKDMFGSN
Sequence of PBP3 (Klebsiella pneumoniae, UniProt A0A0H3GN85) (A0A0H3GN85 entry or part of it): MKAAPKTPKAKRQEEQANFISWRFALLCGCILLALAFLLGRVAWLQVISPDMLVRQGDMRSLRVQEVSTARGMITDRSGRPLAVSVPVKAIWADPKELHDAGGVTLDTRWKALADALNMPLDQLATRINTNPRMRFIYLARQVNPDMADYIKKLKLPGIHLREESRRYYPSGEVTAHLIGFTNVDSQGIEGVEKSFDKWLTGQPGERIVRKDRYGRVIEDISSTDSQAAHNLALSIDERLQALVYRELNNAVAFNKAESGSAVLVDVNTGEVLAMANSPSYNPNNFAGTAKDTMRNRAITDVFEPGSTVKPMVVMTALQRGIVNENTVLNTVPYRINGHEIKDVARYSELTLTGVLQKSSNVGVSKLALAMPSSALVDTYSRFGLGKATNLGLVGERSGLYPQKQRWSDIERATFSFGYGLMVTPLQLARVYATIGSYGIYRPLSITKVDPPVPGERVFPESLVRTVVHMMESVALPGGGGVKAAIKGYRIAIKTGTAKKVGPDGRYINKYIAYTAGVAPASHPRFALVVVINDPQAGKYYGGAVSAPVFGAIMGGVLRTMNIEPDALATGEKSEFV
Sequence of PBP3 (Acinetobacter baumannii, UniProt A0ABX6CK25) (A0ABX6CK25 entry or part of it): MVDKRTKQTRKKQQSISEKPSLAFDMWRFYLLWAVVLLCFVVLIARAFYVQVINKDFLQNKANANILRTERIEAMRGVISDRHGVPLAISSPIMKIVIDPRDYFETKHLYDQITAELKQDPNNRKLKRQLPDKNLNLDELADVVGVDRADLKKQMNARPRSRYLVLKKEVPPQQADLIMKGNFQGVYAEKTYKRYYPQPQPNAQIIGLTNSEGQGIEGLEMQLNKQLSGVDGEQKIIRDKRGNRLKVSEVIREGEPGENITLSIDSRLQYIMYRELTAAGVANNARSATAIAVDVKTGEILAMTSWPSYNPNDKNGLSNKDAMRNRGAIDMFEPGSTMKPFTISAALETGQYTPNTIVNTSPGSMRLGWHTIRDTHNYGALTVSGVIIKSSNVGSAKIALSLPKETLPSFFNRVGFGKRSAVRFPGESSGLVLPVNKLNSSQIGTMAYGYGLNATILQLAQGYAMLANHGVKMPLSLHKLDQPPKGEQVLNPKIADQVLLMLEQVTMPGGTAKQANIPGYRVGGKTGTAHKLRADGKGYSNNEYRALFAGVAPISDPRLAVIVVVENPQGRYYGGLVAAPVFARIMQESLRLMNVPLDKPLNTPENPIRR
Sequence of PBP1a (Acinetobacter baumannii, UniProt A0ABX6CK30) (A0ABX6CK30 entry or part of it): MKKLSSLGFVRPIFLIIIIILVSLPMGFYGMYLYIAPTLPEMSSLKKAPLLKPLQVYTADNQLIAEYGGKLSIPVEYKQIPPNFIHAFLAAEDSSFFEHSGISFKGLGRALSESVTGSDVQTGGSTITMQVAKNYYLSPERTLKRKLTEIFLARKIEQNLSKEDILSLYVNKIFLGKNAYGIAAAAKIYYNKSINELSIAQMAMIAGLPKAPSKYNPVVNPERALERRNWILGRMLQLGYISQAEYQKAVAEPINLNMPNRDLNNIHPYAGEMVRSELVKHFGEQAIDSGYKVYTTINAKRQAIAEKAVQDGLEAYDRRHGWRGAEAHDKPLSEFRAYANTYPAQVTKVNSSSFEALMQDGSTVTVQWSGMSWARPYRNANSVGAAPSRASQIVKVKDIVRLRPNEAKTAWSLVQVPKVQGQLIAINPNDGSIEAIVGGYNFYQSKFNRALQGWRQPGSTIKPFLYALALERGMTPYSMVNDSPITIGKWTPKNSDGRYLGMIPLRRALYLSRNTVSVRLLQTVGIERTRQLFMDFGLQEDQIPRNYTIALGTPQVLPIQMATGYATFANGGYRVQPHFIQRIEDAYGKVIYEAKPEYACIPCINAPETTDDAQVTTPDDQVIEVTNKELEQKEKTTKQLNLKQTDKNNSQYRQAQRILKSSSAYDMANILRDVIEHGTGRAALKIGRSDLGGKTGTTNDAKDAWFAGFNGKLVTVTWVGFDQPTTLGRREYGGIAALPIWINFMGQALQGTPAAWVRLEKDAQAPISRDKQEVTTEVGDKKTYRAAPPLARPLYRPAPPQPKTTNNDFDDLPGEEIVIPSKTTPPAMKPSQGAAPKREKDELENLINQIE

Regarding `O=C(O)c1c(F)ccc2c1OB(O)[C@@H]1C[C@H]21` [Xeruborbactam], the IC50 (as a rule, the concentration at which inhibition is half-maximal) in assay [1] (A. baumannii ACM1320 membranes; Bocillin FL step 0°C for xeruborbactam, 30°C for beta-lactams; read-out: Relative binding IC50, PBP1a) turned out to be 1.4 ± 0.5 µM; in assay [2] (E. coli ECM5497 membranes, Bocillin FL step 0°C for xeruborbactam, 30°C for beta-lactams, read-out: Relative binding IC50, PBP1a), 47 ± 13 µM; in assay [3] (K. pneumoniae KPM1001 membranes; Bocillin FL step 0°C for xeruborbactam, 30°C for beta-lactams; read-out: Relative binding IC50, PBP1a), 41 ± 6 µM; in assay [4] (E. coli ECM5497 membranes, Bocillin FL step 0°C for xeruborbactam, 30°C for beta-lactams, read-out: Relative binding IC50, PBP1b), 56 ± 18 µM; in assay [5] (K. pneumoniae KPM1001 membranes, Bocillin FL step 0°C for xeruborbactam, 30°C for beta-lactams, read-out: Relative binding IC50, PBP2), 51 ± 15 µM; in assay [6] (A. baumannii ACM1320 membranes; Bocillin FL step 0°C for xeruborbactam, 30°C for beta-lactams; read-out: Relative binding IC50, PBP3), 135 ± 40 µM. Also, in assay [7] (K. pneumoniae KPM1001 membranes; Bocillin FL step 0°C for xeruborbactam, 30°C for beta-lactams; read-out: Relative binding IC50, PBP3), the IC50 was 55 ± 8 µM. The cellular morphology entry in assay [8] is reported as “cell shape deformation, from coccobacilli to a football shape”.
As to `C[C@@H](O)[C@H]1C(=O)N2C(C(=O)O)=C(S[C@@H]3CN[C@H](C(=O)N(C)C)C3)[C@H](C)[C@H]12` [Meropenem], the IC50 in assay [1] (read-out: Relative binding IC50, PBP1a; A. baumannii ACM1320 membranes; Bocillin FL step 0°C for xeruborbactam, 30°C for beta-lactams) is 0.07 µM; in assay [2] it was 5.4 µM; in assay [3] (read-out: Relative binding IC50, PBP1a; K. pneumoniae KPM1001 membranes; Bocillin FL step 0°C for xeruborbactam, 30°C for beta-lactams), 6.6 µM; in assay [4], 21.1 µM; in assay [5] it was 0.003 µM; in assay [6] (read-out: Relative binding IC50, PBP3; A. baumannii ACM1320 membranes; Bocillin FL step 0°C for xeruborbactam, 30°C for beta-lactams), 0.19 µM. The IC50 in assay [7] (read-out: Relative binding IC50, PBP3; K. pneumoniae KPM1001 membranes; Bocillin FL step 0°C for xeruborbactam, 30°C for beta-lactams) amounted to 0.24 µM. The cellular morphology entry in assay [8] was “swelling and rounding but not elongation”.
